“Also recorded” adds a separate entry of the source. Like-named read-outs stand apart in the source and are kept apart here.
Tests used:
P448L FKRP mutant mice = experiment: Efficacy in P448L FKRP mutant mouse model; format: in vivo
Method: Glycosylation levels increased from undetectable levels to up to 26% in skeletal muscles with a reduction in disease specific pathology such as central nucleated fibers (diaphragm) and fibrosis (heart).
Ribitol was studied in a P448L FKRP mutant mouse model to assess drug-mediated improvements in matriglycan expression and muscle performance. In one study the mutant mice were treated with doses of 10 g/kg daily by oral gavage or 2.5 g/kg ribitol IV injection weekly for one month.
In a long-term efficacy study the FKRP P448L mutant mice were dosed up to one year by oral gavage. Matriglycan expression was increased as measured by immunohistochemistry and Western Blot analysis after six months of dosing at 2 g/kg, 5 g/kg, and 10 g/kg daily (FIG. 3). […] Diaphragmatic performance was assessed using whole body plethysmography (FIGS. 5A-5F).

[1] = male, Bama, minipig, in vivo, 24 h
Method: Minipigs received 0 (vehicle, purified water), 0.3, 1.0, or 2.0 g/kg of ribitol in a Latinsquare design on Days 1, 12, 17, and 25, respectively. […] Body weights were measured at baseline and on each dosing day. On each dosing occasion, ECG waveforms, heart rate, and blood pressure data were recorded from at least 2 hours prior to dose (to establish baseline values) to approximately 24 hours post-dose. ECG tracings of a minimum of 30 seconds duration were obtained from all minipigs twice prior to each dose (at least 30 minutes apart) and at 0.5, 2, 4, 8, 12, and 24 hours post dose.

[2] = 28-day repeat-dose oral toxicokinetics; format: in vivo, Bama minipig; details: for AUC(0-t): read-out: AUC0-24
Method: Toxicokinetics of ribitol was evaluated as part of the 28-day toxicology study in male and female Bama minipig. […] Animals in control group were dosed for 28 days twice daily with the vehicle only (Purified Water). On Days 1 and 28, blood samples were collected at 0 (pre first dose), 0.5, 1, 2, 4, 6 (pre-second dose), 6.5, 7, 8, 10, 12, and 24 hours from all available animals.

[3] = 1.0 g/kg/dose BID (2.0 g/kg/day, NOAEL), Day 28, Female
[4] = 1.0 g/kg/dose BID (2.0 g/kg/day, NOAEL), Day 28, Male

OC[C@@H](O)[C@@H](O)[C@@H](O)CO [ribitol, (2R,3s,4S)-Pentane-1,2,3,4,5-pentol]
treadmill exhaustion running distance and running time (P448L FKRP mutant mice; 2, 5 g/kg/day, 5 g/kg/dose BID, 3.3 g/kg/dose TID): improvements
creatine kinase activity (P448L FKRP mutant mice; 6 months): decreased with increasing doses
increase in running time (P448L FKRP mutant mice; 6 months, 2 g/kg/day): 50-75%
increase in treadmill distance (P448L FKRP mutant mice; 6 months, 2 g/kg/day): 50%
efficacious dose (P448L FKRP mutant mice; FKRP mutant mouse models): 500 mg/kg
glycosylation levels in skeletal muscles (P448L FKRP mutant mice; from undetectable levels): up to 26%
muscle histology (P448L FKRP mutant mice; long-term oral dosing): decreases in fibrosis
levels of ribitol, ribitol-5-phosphate, CDP-ribitol in heart and leg muscles versus untreated mice (P448L FKRP mutant mice; oral or intravenous): up to 4 times
NOEL above efficacious dose of 0.5 g/kg in FKRP mutant mouse models [1]: approximately 4 fold
safety margin for proposed clinical starting dose [1]: 227 fold
AUC0-24 [2, 3]: 1980 ± 1040 µg·h/mL
Cmax [2, 3]: 281 ± 141 µg/mL
AUC0-24 [2, 4]: 2560 ± 526 µg·h/mL
Cmax [2, 4]: 475 ± 97.7 µg/mL
drug accumulation ([2]; after 28-day repeated oral administration, any dose level): no marked drug accumulation; also recorded: no apparent ribitol drug accumulation
Tmax ([2]; both sexes, Bama, minipig, plasma, oral, post dose and post second dose, Day 1 or Day 28, range): 0.5 to 2 h
AUC(0-t) ([2]; female, Bama, minipig, plasma, po, 0.1 g/kg, 0.1 g/kg/dose BID, Day 1, Female, mean ± SD): 268 ± 129 µg·h/mL
Cmax ([2]; female, Bama, minipig, plasma, po, 0.1 g/kg, 0.1 g/kg/dose BID, Day 1, Female, mean ± SD, read-out: Cmax): 39.6 ± 23.3 µg/mL
Tmax ([2]; female, Bama, minipig, plasma, po, 0.1 g/kg, 0.1 g/kg/dose BID, Day 1, Female, median (range)): 5 h
AUC(0-t) ([2]; female, Bama, minipig, plasma, po, 0.1 g/kg, 0.1 g/kg/dose BID, Day 28, Female, mean ± SD): 257 ± 82.6 µg·h/mL
Cmax ([2]; female, Bama, minipig, plasma, po, 0.1 g/kg, 0.1 g/kg/dose BID, Day 28, Female, mean ± SD, read-out: Cmax): 37.2 ± 17.8 µg/mL
Tmax ([2]; female, Bama, minipig, plasma, po, 0.1 g/kg, 0.1 g/kg/dose BID, Day 28, Female, median (range)): 7 h
AUC(0-t) ([2]; female, Bama, minipig, plasma, po, 0.3 g/kg, 0.3 g/kg/dose BID, Day 1, Female, mean ± SD): 605 ± 83.4 µg·h/mL
Cmax ([2]; female, Bama, minipig, plasma, po, 0.3 g/kg, 0.3 g/kg/dose BID, Day 1, Female, mean ± SD, read-out: Cmax): 98.4 ± 28 µg/mL
Tmax ([2]; female, Bama, minipig, plasma, po, 0.3 g/kg, 0.3 g/kg/dose BID, Day 1, Female, median (range)): 4.3 h
AUC(0-t) ([2]; female, Bama, minipig, plasma, po, 0.3 g/kg, 0.3 g/kg/dose BID, Day 28, Female, mean ± SD): 894 ± 125 µg·h/mL
Cmax ([2]; female, Bama, minipig, plasma, po, 0.3 g/kg, 0.3 g/kg/dose BID, Day 28, Female, mean ± SD, read-out: Cmax): 139 ± 40.9 µg/mL
Tmax ([2]; female, Bama, minipig, plasma, po, 0.3 g/kg, 0.3 g/kg/dose BID, Day 28, Female, median (range)): 4.3 h
AUC(0-t) ([2]; female, Bama, minipig, plasma, po, 1 g/kg, 1.0 g/kg/dose BID (2.0 g/kg/day, NOAEL), Day 28, Female): 1980 µg·h/mL
Cmax ([2]; female, Bama, minipig, plasma, po, 1 g/kg, 1.0 g/kg/dose BID (2.0 g/kg/day, NOAEL), Day 28, Female, read-out: Cmax): 281 µg/mL
AUC(0-t) ([2]; female, Bama, minipig, plasma, po, 1 g/kg, 1.0 g/kg/dose BID, Day 1, Female, mean ± SD): 1770 ± 582 µg·h/mL
Cmax ([2]; female, Bama, minipig, plasma, po, 1 g/kg, 1.0 g/kg/dose BID, Day 1, Female, mean ± SD, read-out: Cmax): 261 ± 82.4 µg/mL
Tmax ([2]; female, Bama, minipig, plasma, po, 1 g/kg, 1.0 g/kg/dose BID, Day 1, Female, median (range)): 6.8 h
Tmax ([2]; female, Bama, minipig, plasma, po, 1 g/kg, 1.0 g/kg/dose BID, Day 28, Female, median (range)): 7 h
AUC(0-t) ([2]; female, Bama, minipig, plasma, po, 2 g/kg/day, 1.0 g/kg/dose BID (2.0 g/kg/day, NOAEL), Day 28, Female): 1980 µg·h/mL
Cmax ([2]; female, Bama, minipig, plasma, po, 2 g/kg/day, 1.0 g/kg/dose BID (2.0 g/kg/day, NOAEL), Day 28, Female, read-out: Cmax): 281 µg/mL
AUC(0-t) ([2]; male, Bama, minipig, plasma, po, 0.1 g/kg, 0.1 g/kg/dose BID, Day 1, Male, mean ± SD): 210 ± 75 µg·h/mL
Cmax ([2]; male, Bama, minipig, plasma, po, 0.1 g/kg, 0.1 g/kg/dose BID, Day 1, Male, mean ± SD, read-out: Cmax): 39.8 ± 16.8 µg/mL
Tmax ([2]; male, Bama, minipig, plasma, po, 0.1 g/kg, 0.1 g/kg/dose BID, Day 1, Male, median (range)): 6.8 h
AUC(0-t) ([2]; male, Bama, minipig, plasma, po, 0.1 g/kg, 0.1 g/kg/dose BID, Day 28, Male, mean ± SD): 215 ± 68.9 µg·h/mL
Cmax ([2]; male, Bama, minipig, plasma, po, 0.1 g/kg, 0.1 g/kg/dose BID, Day 28, Male, mean ± SD, read-out: Cmax): 37.2 ± 14.2 µg/mL
Tmax ([2]; male, Bama, minipig, plasma, po, 0.1 g/kg, 0.1 g/kg/dose BID, Day 28, Male, median (range)): 3.8 h
AUC(0-t) ([2]; male, Bama, minipig, plasma, po, 0.3 g/kg, 0.3 g/kg/dose BID, Day 1, Male, mean ± SD): 539 ± 215 µg·h/mL
Cmax ([2]; male, Bama, minipig, plasma, po, 0.3 g/kg, 0.3 g/kg/dose BID, Day 1, Male, mean ± SD, read-out: Cmax): 104 ± 52.1 µg/mL
Tmax ([2]; male, Bama, minipig, plasma, po, 0.3 g/kg, 0.3 g/kg/dose BID, Day 1, Male, median (range)): 4.3 h
AUC(0-t) ([2]; male, Bama, minipig, plasma, po, 0.3 g/kg, 0.3 g/kg/dose BID, Day 28, Male, mean ± SD): 585 ± 227 µg·h/mL
Cmax ([2]; male, Bama, minipig, plasma, po, 0.3 g/kg, 0.3 g/kg/dose BID, Day 28, Male, mean ± SD, read-out: Cmax): 123 ± 78.2 µg/mL
Tmax ([2]; male, Bama, minipig, plasma, po, 0.3 g/kg, 0.3 g/kg/dose BID, Day 28, Male, median (range)): 0.8 h
AUC(0-t) ([2]; male, Bama, minipig, plasma, po, 1 g/kg, 1.0 g/kg/dose BID (2.0 g/kg/day, NOAEL), Day 28, Male): 2560 µg·h/mL
